Literature values in patent publication US20050112210A1, “Eye nutritional supplement” (priority 2003, published 2005).

System: A2E-epoxidation
Conditions: singlet oxygen generated in the presence of A2E

Compound	effect on A2E-epoxidation
Cc1cc(C(C)(C)C)c(O)c(C(C)(C)C)c1 [butylated hydroxytoluene]	reduced A2E-epoxidation by quenching singlet oxygen
Oc1ccc(C=Cc2cc(O)cc(O)c2)cc1 [resveratrol]	reduced A2E-epoxidation by quenching singlet oxygen
vitamin E	reduced A2E-epoxidation by quenching singlet oxygen
